Measured values as given in patent US7521478B2, “Total synthesis of myriaporones” (Pharma Mar, S.A.U., priority 2002, dated 2009).
Like-named read-outs stand apart in the source and are kept apart here.

Tests used:
Format in all cases: cell-based
[1] = tested on: SK-BR-3; test: Inhibition of cell growth by colorimetric SRB assay, SK-BR-3; conditions: for GI50 / CC50: Homo sapiens; for TGI: total growth inhibition
In short: (§1)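 Absorbance of solubilized bound SRB (490 nm) quantified cell growth and viability after cells were exposed to compound for 48 h. Seeding was 5×10^3 cells per well in RPMI 1640/10% FBS, with 18 h attachment beforehand. GI, TGI and LC were calculated from means of triplicate wells.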

[2] = tested on: LoVo; test: Inhibition of cell growth by colorimetric SRB assay, LOVO; conditions: Homo sapiens; for LC50: read-out: LC50; for IC (total growth inhibition): read-out: TGI
In short: as §1

[3] = tested on: A-549; test: Inhibition of cell growth by colorimetric SRB assay, A-549; conditions: Homo sapiens; for IC (total growth inhibition): read-out: TGI
In short: as §1

[4] = tested on: PANC-1; test: Inhibition of cell growth by colorimetric SRB assay, PANC-1; conditions: Homo sapiens; for IC (total growth inhibition): read-out: TGI
In short: as §1

[5] = tested on: IGROV; test: Inhibition of cell growth by colorimetric SRB assay, IGROV; conditions: Homo sapiens; for IC (total growth inhibition): read-out: TGI
In short: as §1

[6] = tested on: LNCaP; test: Inhibition of cell growth by colorimetric SRB assay, LN-caP; conditions: Homo sapiens; for IC (total growth inhibition): read-out: TGI
In short: as §1

[7] = tested on: HeLa-APL; test: Inhibition of cell growth by colorimetric SRB assay, HELA-APL; conditions: Homo sapiens
In short: as §1

[8] = tested on: K-562; test: Inhibition of cell growth by colorimetric SRB assay, K-562; conditions: Homo sapiens; for IC (total growth inhibition): read-out: TGI
In short: as §1

[9] = tested on: IGROV-ET; test: Inhibition of cell growth by colorimetric SRB assay, IGROV-ET; conditions: Homo sapiens; for IC (total growth inhibition): read-out: TGI
In short: as §1

[10] = tested on: DU-145; test: Inhibition of cell growth by colorimetric SRB assay, DU-145; conditions: Homo sapiens; for IC (total growth inhibition): read-out: TGI
In short: as §1

[11] = tested on: SK-MEL-28; test: Inhibition of cell growth by colorimetric SRB assay, MEL-28; conditions: Homo sapiens; for IC (total growth inhibition): read-out: TGI
In short: as §1

[12] = tested on: HT-29; test: Inhibition of cell growth by colorimetric SRB assay, HT-29; conditions: Homo sapiens; for IC (total growth inhibition): read-out: TGI
In short: as §1

[13] = tested on: HeLa; test: Inhibition of cell growth by colorimetric SRB assay, HELA; conditions: Homo sapiens; for IC (total growth inhibition): read-out: TGI
In short: as §1

[14] = tested on: LoVo-Dox; test: Inhibition of cell growth by colorimetric SRB assay, LOVO-DOX; conditions: Homo sapiens; for LC50 (concentration for 50% cell killing): read-out: LC50; for IC (total growth inhibition): read-out: TGI
In short: as §1

[15] = SK-MEL-28, MEL-28, 48 hours exposure

**Q.** `C/C=C\[C@H](C)[C@H]1OC1(C)[C@@H](O[Si](C)(C)C(C)(C)C)[C@@H](CO)C(=O)[C@H](CO)[C@H](O)CC(=O)CC` (stereo partly drawn) [20b + 20d] was tested. Which GI50 ([1]; SK-BR-3, 48 hours exposure) did it give?
**A.** The GI50 was 14.9 µM.

**Q.** What about the CC50 ([1]; SK-BR-3, 48 hours exposure, cell killing, read-out: LC50 (the source's name)) of the same compound?
**A.** Its CC50 is 20.5 µM.

**Q.** And the TGI ([1]; SK-BR-3, 48 hours exposure)?
**A.** The TGI was 2.05E−05 Molar.

**Q.** And the GI50 ([2]; LOVO, 48 hours exposure)?
**A.** The GI50 was 20.5 µM.

**Q.** And the LC50 ([2]; LOVO, 48 hours exposure, cell killing)?
**A.** Its LC50 is 20.5 µM.

**Q.** What about the IC (total growth inhibition) ([2]; LOVO, 48 hours exposure) of the same compound?
**A.** The IC (total growth inhibition) was 20.5 µM.

**Q.** And the GI50 ([3]; A549, A-549, 48 hours exposure)?
**A.** The GI50 was 20.5 µM.

**Q.** What about the CC50 ([3]; A549, A-549, 48 hours exposure, cell killing, read-out: LC50 (the source's name)) of the same compound?
**A.** Its CC50 is 20.5 µM.

**Q.** What about the IC (total growth inhibition) ([3]; A549, A-549, 48 hours exposure) of the same compound?
**A.** Its IC (total growth inhibition) is 20.5 µM.

**Q.** What about the GI50 ([4]; PANC-1, 48 hours exposure) of the same compound?
**A.** The GI50 was 9.37 µM.

**Q.** What about the CC50 ([4]; PANC-1, 48 hours exposure, cell killing, read-out: LC50 (the source's name)) of the same compound?
**A.** Its CC50 is 20.5 µM.

**Q.** What about the IC (total growth inhibition) ([4]; PANC-1, 48 hours exposure) of the same compound?
**A.** The IC (total growth inhibition) was 20.5 µM.

**Q.** And the GI50 ([5]; 48 hours exposure)?
**A.** Its GI50 is 20.5 µM.

**Q.** What about the CC50 ([5]; 48 hours exposure, cell killing, read-out: LC50 (the source's name)) of the same compound?
**A.** Its CC50 is 20.5 µM.

**Q.** What about the IC (total growth inhibition) ([5]; 48 hours exposure) of the same compound?
**A.** The IC (total growth inhibition) was 20.5 µM.

**Q.** And the GI50 ([6]; LN-caP, 48 hours exposure)?
**A.** The GI50 was 12.4 µM.

**Q.** And the CC50 ([6]; LN-caP, 48 hours exposure, cell killing, read-out: LC50 (the source's name))?
**A.** The CC50 was 20.5 µM.

**Q.** And the IC (total growth inhibition) ([6]; LN-caP, 48 hours exposure)?
**A.** The IC (total growth inhibition) was 20.5 µM.

**Q.** And the CC50 ([7]; HELA-APL, 48 hours exposure, cell killing, read-out: LC50 (the source's name))?
**A.** The CC50 was 20.5 µM.

**Q.** And the GI50 ([8]; K562, K-562, 48 hours exposure)?
**A.** Its GI50 is 10.3 µM.

**Q.** What about the CC50 ([8]; K562, K-562, 48 hours exposure, cell killing, read-out: LC50 (the source's name)) of the same compound?
**A.** The CC50 was 20.5 µM.

**Q.** And the IC (total growth inhibition) ([8]; K562, K-562, 48 hours exposure)?
**A.** The IC (total growth inhibition) was 20.5 µM.

**Q.** What about the GI50 ([9]; IGROV-ET, 48 hours exposure) of the same compound?
**A.** Its GI50 is 20.5 µM.

**Q.** And the CC50 ([9]; IGROV-ET, 48 hours exposure, cell killing, read-out: LC50 (the source's name))?
**A.** Its CC50 is 20.5 µM.

**Q.** And the IC (total growth inhibition) ([9]; IGROV-ET, 48 hours exposure)?
**A.** Its IC (total growth inhibition) is 20.5 µM.

**Q.** What about the GI50 ([10]; DU-145, 48 hours exposure) of the same compound?
**A.** Its GI50 is 20.5 µM.

**Q.** What about the CC50 ([10]; DU-145, 48 hours exposure, cell killing, read-out: LC50 (the source's name)) of the same compound?
**A.** Its CC50 is 20.5 µM.

**Q.** And the IC (total growth inhibition) ([10]; DU-145, 48 hours exposure)?
**A.** The IC (total growth inhibition) was 20.5 µM.

**Q.** What about the GI50 [11, 15] of the same compound?
**A.** Its GI50 is 20.5 µM.

**Q.** And the CC50 ([11]; SK-MEL-28, MEL-28, 48 hours exposure, cell killing, read-out: LC50 (the source's name))?
**A.** The CC50 was 20.5 µM.

**Q.** What about the IC (total growth inhibition) [11, 15] of the same compound?
**A.** The IC (total growth inhibition) was 20.5 µM.

**Q.** And the GI50 ([12]; HT-29, 48 hours exposure)?
**A.** The GI50 was 20.5 µM.

**Q.** And the CC50 ([12]; HT-29, 48 hours exposure, cell killing, read-out: LC50 (the source's name))?
**A.** The CC50 was 20.5 µM.

**Q.** And the IC (total growth inhibition) ([12]; HT-29, 48 hours exposure)?
**A.** Its IC (total growth inhibition) is 20.5 µM.

**Q.** What about the GI50 ([13]; HELA, 48 hours exposure) of the same compound?
**A.** Its GI50 is 20.5 µM.

**Q.** What about the CC50 ([13]; HELA, 48 hours exposure, cell killing, read-out: LC50 (the source's name)) of the same compound?
**A.** Its CC50 is 20.5 µM.

**Q.** What about the IC (total growth inhibition) ([13]; HELA, 48 hours exposure) of the same compound?
**A.** The IC (total growth inhibition) was 20.5 µM.

**Q.** And the GI50 ([14]; LOVO-DOX, 48 hours exposure)?
**A.** The GI50 was 20.5 µM.

**Q.** And the LC50 (concentration for 50% cell killing) ([14]; LOVO-DOX, 48 hours exposure, cell killing)?
**A.** The LC50 (concentration for 50% cell killing) was 20.5 µM.

**Q.** And the IC (total growth inhibition) ([14]; LOVO-DOX, 48 hours exposure)?
**A.** Its IC (total growth inhibition) is 20.5 µM.

**Q.** Which results are given for `C=C(C(=O)[C@H](COC(C)=O)[C@H](O)C1(C)O[C@@H]1[C@@H](C)/C=C\C)[C@@H](O)CC(=O)CC` (stereo partly drawn) [Compound 1]?
**A.** CC50 ([1]; SK-BR-3, 48 h, read-out: LC50): 3.43 µM; GI50 ([1]; SK-BR-3, 48 hours exposure): 0.469 µM; TGI ([1]; SK-BR-3, 48 hours exposure): 1.11E−05 Molar; LC50 ([2]; LoVo, 48 h): 12.6 µM; GI50 ([2]; LOVO, 48 hours exposure): 1.62 µM; IC (total growth inhibition) ([2]; LOVO, 48 hours exposure): 4.87 µM; CC50 ([3]; A549, 48 h, read-out: LC50): 23.5 µM; GI50 ([3]; A549, A-549, 48 hours exposure): 1.1 µM; IC (total growth inhibition) ([3]; A549, A-549, 48 hours exposure): 5.04 µM; CC50 ([4]; PANC-1, 48 h, read-out: LC50): 21.3 µM; GI50 ([4]; PANC-1, 48 hours exposure): 3.33 µM; IC (total growth inhibition) ([4]; PANC-1, 48 hours exposure): 8.4 µM; CC50 ([5]; 48 h, read-out: LC50): 17.6 µM; GI50 ([5]; 48 hours exposure): 1.63 µM; IC (total growth inhibition) ([5]; 48 hours exposure): 5.67 µM; CC50 ([6]; 48 h, read-out: LC50): ≥ 25.2 µM; GI50 ([6]; LN-caP, 48 hours exposure): 1.45 µM; IC (total growth inhibition) ([6]; LN-caP, 48 hours exposure): 6.31 µM; GI50 ([7]; 48 h): 1.72 µM; IC (total growth inhibition) ([7]; 48 h, read-out: TGI): 6.23 µM; CC50 ([8]; K562, 48 h, read-out: LC50): 24.6 µM; GI50 ([8]; K562, K-562, 48 hours exposure): 1.99 µM; IC (total growth inhibition) ([8]; K562, K-562, 48 hours exposure): 7.36 µM; CC50 ([9]; 48 h, read-out: LC50): 23.7 µM; GI50 ([9]; IGROV-ET, 48 hours exposure): 3.1 µM; IC (total growth inhibition) ([9]; IGROV-ET, 48 hours exposure): 8.58 µM; CC50 ([10]; DU-145, 48 h, read-out: LC50): ≥ 25.2 µM; GI50 ([10]; DU-145, 48 hours exposure): 3.66 µM; IC (total growth inhibition) ([10]; DU-145, 48 hours exposure): 10.2 µM; CC50 ([11]; SK-MEL-28, 48 h, read-out: LC50): 13.6 µM; GI50 [11, 15]: 2.72 µM; IC (total growth inhibition) [11, 15]: 6.1 µM; CC50 ([12]; HT-29, 48 h, read-out: LC50): 13.4 µM; GI50 ([12]; HT-29, 48 hours exposure): 1.67 µM; IC (total growth inhibition) ([12]; HT-29, 48 hours exposure): 5.37 µM; CC50 ([13]; HeLa, 48 h, read-out: LC50): 20.5 µM; GI50 ([13]; HELA, 48 hours exposure): 1.99 µM; IC (total growth inhibition) ([13]; HELA, 48 hours exposure): 6.66 µM; LC50 (concentration for 50% cell killing) ([14]; 48 h): 21.1 µM; GI50 ([14]; LOVO-DOX, 48 hours exposure): 3.13 µM; IC (total growth inhibition) ([14]; LOVO-DOX, 48 hours exposure): 8.1 µM
